Tests used:
[1] = system: venous thrombosis; assay: Venous thrombosis test in the rat (Wessler venous stasis under hypercoagulation with factor Xa), oral administration; format: in vivo; conditions: Wistar male rats
Procedure: The antithrombotic activity of the compounds according to the invention was studied in vivo in the rat by means of a test that reproduces a venous thrombosis. The venous thrombosis was induced according to the protocol described in Thromb. Haemost., 1992, 67(1), 176-179. The oral activity was studied according to the following operating protocol: The experiments are performed on non-fasted Wistar male rats weighing 250 to 280 g, divided into groups of 10 animals each. The test products are administered orally (tubage) dissolved or suspended in a solution of methyl cellulose (0.5% in water). […] To induce this thrombosis, a venous stasis is created under hypercoagulation according to the technique described by WESSLER (J. Applied Physiol., 1959, 943-946), the hypercoagulating agent used being a solution of activated factor X (Xa) having a concentration of 7.5 nKat/kg, supplied by Biogenic (Montpellier). The venous stasis is effected exactly 10 seconds after injection of the hypercoagulating agent. The activity of the test compounds was checked at different doses after they had been administered.

[2] = Rattus norvegicus, dose 6 mg/kg, thrombosis induced 2 h after administration, read-out: Oral activity: Activity (percentage inhibition of thrombus formation)
[3] = dose 6 mg/kg, thrombosis induced 2 h after administration

| melting point | Compound | inhibition in vivo at 6 mg/kg [1, 2] | other results |
| --- | --- | --- | --- |
| 208 to 211 °C | O[C@@H]1[C@@H](O)[C@H](Oc2cncc(-c3ccc(F)cc3Cl)c2)SC[C@H]1O [Example 89, 5-(2-chloro-4-fluorophenyl)-3-pyridinyl 5-thio-β-D-xylopyranoside] | 100% | – |
| – | CC(=O)c1ccc(O[C@@H]2SC[C@@H](O)[C@H](O)[C@H]2O)cn1 [Example 2, 6-acetyl-3-pyridinyl 5-thio-β-D-xylopyranoside] | 63% | – |
| – | CC(=O)O[C@@H]1[C@@H](OC(C)=O)[C@H](OC(C)=O)CS[C@H]1Oc1cccnc1C(C)=O [Example 3, 2-acetyl-3-pyridinyl 2,3,4-tri-O-acetyl-5-thio-β-D-xylopyranoside] | – | inhibition in vivo at 8.6 mg/kg ([1]; Rattus norvegicus, dose 8.6 mg/kg, thrombosis induced 2 h after administration, read-out: Oral activity: Activity (percentage inhibition of thrombus formation)): 92% |
| – | O[C@@H]1[C@@H](O)[C@H](Oc2cncc(-c3ccccc3F)c2)SC[C@H]1O [Example 126, 5-(2-fluorophenyl)-3-pyridinyl 5-thio-β-D-xylopyranoside] | 91% | – |
| – | N#Cc1ccc(-c2ncccc2O[C@@H]2SC[C@@H](O)[C@H](O)[C@H]2O)cc1 [Example 12, [2-(4-cyanophenyl)-3-pyridinyl]5-thio-β-D-xylopyranoside] | – | Oral activity: Activity (percentage inhibition of thrombus formation) [1, 3]: 14% |
| – | CC(=O)O[C@@H]1[C@@H](OC(C)=O)[C@H](OC(C)=O)CS[C@H]1Oc1cncc(-c2ccc(C#N)cc2)c1 [Example 15, [5-(4-cyanophenyl)-3-pyridinyl]2,3,4-tri-O-acetyl-5-thio-β-D-xylopyranoside] | – | Oral activity: Activity (percentage inhibition of thrombus formation) ([1]; dose 8.2 mg/kg, thrombosis induced 2 h after administration): 84% |
| – | O[C@@H]1[C@@H](O)[C@H](Oc2cncc(-c3ccccc3)c2)SC[C@H]1O [Example 14, 5-phenyl-3-pyridinyl 5-thio-β-D-xylopyranoside] | 50% | – |
| 197 °C | Cc1cc(-c2cncc(O[C@@H]3SC[C@@H](O)[C@H](O)[C@H]3O)c2)ccc1F [Example 59, 5-(4-fluoro-3-methylphenyl)-3-pyridinyl 5-thio-β-D-xylopyranoside] | 82% | – |
| 200 °C | COc1ccc(-c2cncc(O[C@@H]3SC[C@@H](O)[C@H](O)[C@H]3O)c2)cc1F [Example 103, 5-(3-fluoro-4-methoxyphenyl)-3-pyridinyl 5-thio-β-D-xylopyranoside] | 100% | – |
| – | O[C@@H]1[C@@H](O)[C@H](Oc2cncc(-c3cccc(F)c3)c2)SC[C@H]1O [Example 123, 5-(3-fluorophenyl)-3-pyridinyl 5-thio-β-D-xylopyranoside] | 97% | – |
| 217 °C | Cc1cc(F)ccc1-c1cncc(O[C@@H]2SC[C@@H](O)[C@H](O)[C@H]2O)c1 [Example 61, 5-(4-fluoro-2-methylphenyl)-3-pyridinyl 5-thio-β-D-xylopyranoside] | 98% | – |
| 123 °C | CC(=O)c1ncccc1O[C@@H]1SC[C@@H](O)[C@H](O)[C@H]1O [Example 4, 2-acetyl-3-pyridinyl 5-thio-β-D-xylopyranoside] | 96% | – |
| – | O[C@@H]1[C@@H](O)[C@H](Oc2cncc(-c3ccc(F)c(Cl)c3)c2)SC[C@H]1O [Example 131, 5-(3-chloro-4-fluorophenyl)-3-pyridinyl 5-thio-β-D-xylopyranoside] | 80% | – |
| – | O=C(c1ccc(C(F)(F)F)cc1)c1ccc(O[C@@H]2SC[C@@H](O)[C@H](O)[C@H]2O)cn1 [Example 8, [6-[4-(trifluoromethyl)benzoyl]-3-pyridinyl]5-thio-β-D-xylopyranoside] | – | Oral activity: Activity (percentage inhibition of thrombus formation) [1, 3]: 46% |
| – | N#Cc1ccc(C(=O)c2ncccc2O[C@@H]2SC[C@@H](O)[C@H](O)[C@H]2O)cc1 [Example 6, [2-(4-cyanobenzoyl)-3-pyridinyl]5-thio-β-D-xylopyranoside] | – | Oral activity: Activity (percentage inhibition of thrombus formation) [1, 3]: 61%; Oral activity: Activity (percentage inhibition of thrombus formation) ([1]; dose 6 mg/kg, thrombosis induced 8 h after administration): 26% |
| 214 °C | N#Cc1ccc(-c2cncc(O[C@@H]3SC[C@@H](O)[C@H](O)[C@H]3O)c2)cc1F [Example 91, 5-(4-cyano-3-fluorophenyl)-3-pyridinyl 5-thio-β-D-xylopyranoside] | – | – |
| 172 °C | N#Cc1cccc(-c2cncc(O[C@@H]3SC[C@@H](O)[C@H](O)[C@H]3O)c2)c1 [Example 55, 5-(3-cyanophenyl)-3-pyridinyl 5-thio-β-D-xylopyranoside] | – | – |
| 213 °C | Cc1ccc(-c2cncc(O[C@@H]3SC[C@@H](O)[C@H](O)[C@H]3O)c2)cc1F [Example 107, 5-(3-fluoro-4-methylphenyl)-3-pyridinyl 5-thio-β-D-xylopyranoside] | – | – |
| 207 °C | Cc1ccc(-c2cncc(O[C@@H]3SC[C@@H](O)[C@H](O)[C@H]3O)c2)c(Cl)c1 [Example 111, 5-(2-chloro-4-methylphenyl)-3-pyridinyl 5-thio-β-D-xylopyranoside] | – | – |
| 215 °C | OCc1ccc(-c2ccc(O[C@@H]3SC[C@@H](O)[C@H](O)[C@H]3O)cn2)cc1 [Example 95, 6-[4-(hydroxymethyl)phenyl]-3-pyridinyl 5-thio-β-D-xylopyranoside] | – | – |
| 228 °C | COc1ccc(-c2ccncc2O[C@@H]2SC[C@@H](O)[C@H](O)[C@H]2O)cc1 [Example 101, 4-(4-methoxyphenyl)-3-pyridinyl 5-thio-β-D-xylopyranoside] | 97% | – |
| 191 °C | Cc1ccc(-c2ccc(O[C@@H]3SC[C@@H](O)[C@H](O)[C@H]3O)cn2)cc1 [Example 99, 6-(4-methylphenyl)-3-pyridinyl 5-thio-β-D-xylopyranoside] | 72% | – |

Source: patent US8148407B2, “Compounds derived from 5-thioxylose and their use in therapeutics” (Laboratories Fournier S.A., priority 2005, dated 2012)
